Measured values taken from patent US12083101B2, “Biaryl derivatives as YAP/TAZ-TEAD protein-protein interaction inhibitors” (Novartis AG, priority 2020, dated 2024).
Where two headings read alike, the source gives them in different places.

Experiments:
[1] = target: Avi-humanTEAD4 217-434 / Cy5 labeled humanYAP 60-100 (Homo sapiens (Human), UniProt Q15561); experiment: TR-FRET YAP-TEAD4 in-vitro biochemical assay; format: binding; conditions: 1 nM Avi-humanTEAD4 217-434, 20 nM Cy5-humanYAP 60-100, 1 h room temperature
Avi-humanTEAD4 217-434 / Cy5 labeled humanYAP 60-100, sequence (Q15561 217-434): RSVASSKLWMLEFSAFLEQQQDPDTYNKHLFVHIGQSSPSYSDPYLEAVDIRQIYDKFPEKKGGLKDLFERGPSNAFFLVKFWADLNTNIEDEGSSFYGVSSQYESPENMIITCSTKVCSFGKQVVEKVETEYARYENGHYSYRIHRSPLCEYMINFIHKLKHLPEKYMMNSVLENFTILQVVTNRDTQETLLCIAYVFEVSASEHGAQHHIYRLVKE

[2] = system: NCI-H2052 Tet-On shYAP_2371 pLenti6 MCAT_Luc cells; experiment: Proliferation assay (resazurin), NCI-H2052; format: cell-based; conditions: 72 hours incubation
Outline: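 The NCI-H2052 line carries a Tet-inducible shRNA against the YAP1 3′UTR and an MCAT luciferase reporter. The day after seeding, it received eleven 2-fold compound dilutions at 0.1% DMSO, and viability was read by resazurin fluorescence.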

MKN-45/Ubc-luc cells [3] = experiment: Reporter gene specificity control (Ubc-luciferase), MKN-45
[4] = system: NCI-H2052 Tet-On shYAP_2371 pLenti6 MCAT_Luc cells (YAP-dependent transcription); experiment: YAP reporter gene activity assay (MCAT-luciferase), NCI-H2052; format: cell-based; conditions: 24 hours incubation, BrightGlo luminescence
Outline: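 NCI-H2052 cells carrying an MCAT-luciferase reporter and a tetracycline-inducible YAP 3′UTR shRNA were treated with eleven 2-fold compound dilutions (0.1% DMSO) for 24 h at 37 °C. BrightGlo luminescence was background-subtracted and expressed as % of DMSO control. IC50 came from a four-parameter fit; MKN-45/Ubc-luc cells served as the specificity counterscreen.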

MKN-45/Ubc-luc cells [5] = experiment: Proliferation assay (resazurin), MKN-45; format: cell-based; conditions: 72 hours incubation
[6] = Homo sapiens, MKN-45, 24 h, read-out: Reporter gene assay MKN-45 IC50 [μM], MKN-45/Ubc-luc cells (YAP deleted, specificity control), 24 hours incubation

IC50 [1] | GI50 ([2]; Homo sapiens, NCI-H2052, 72 h) | IC50 (MKN-45/Ubc-luc cells [3]; [6]) | IC50 ([4]; Homo sapiens, NCI-H2052, 24 h) | GI50 (MKN-45/Ubc-luc cells [5]; Homo sapiens) | GI50 [2] | IC50 (MKN-45/Ubc-luc cells [3]; read-out: Reporter gene assay MKN-45 IC50, MKN-45/Ubc-luc cells (YAP deleted, specificity control), 24 hours incubation) | IC50 [4] | GI50 (MKN-45/Ubc-luc cells [5]) | Structure (SMILES)
0.005 µM | 0.111 µM | > 10 µM | 0.08 µM | > 10 µM | – | – | – | – | C[C@]1(O)CC[C@H](NC[C@@]2(c3ccccc3)Cc3c(cc(F)c(Cl)c3-c3c(C(N)=O)ccc(-n4ccnc4)c3F)O2)CC1 (atropisomer, axis not shown) [Example 69a, 2-((2S,4S)-5-chloro-6-fluoro-2-((((trans)-4-hydroxy-4-methylcyclohexyl)amino)methyl)-2-phenyl-2,3-dihydrobenzofuran-4-yl)-3-fluoro-4-(1H-imidazol-1-yl)benzamide]
0.003 µM | – | – | – | – | 0.101 µM | > 10 µM | 0.083 µM | > 10 µM | NC(=O)c1ccc(OC(F)F)c(F)c1-c1c(Cl)ccc2c1[C@H](O)[C@@](CN[C@H]1CC[C@@H](O)CC1)(c1ccccc1)O2 (relative stereo) [Example 94b, 2-((2S,3S,4S)-5-chloro-3-hydroxy-2-((((cis)-4-hydroxycyclohexyl)amino)methyl)-2-phenyl-2,3-dihydrobenzofuran-4-yl)-4-(difluoromethoxy)-3-fluorobenzamide]
0.002 µM | 0.023 µM | > 10 µM | 0.018 µM | > 10 µM | – | – | – | – | C[C@H](O)COc1ccc(C(N)=O)c(-c2c(Cl)c(F)cc3c2[C@H](C)[C@@](CN[C@H]2CC[C@](C)(O)CC2)(c2ccccc2)O3)c1F (atropisomer, axis not shown) [Example 114a, 2-((2S,3S,4S)-5-chloro-6-fluoro-2-((((trans)-4-hydroxy-4-methylcyclohexyl)amino)methyl)-3-methyl-2-phenyl-2,3-dihydrobenzofuran-4-yl)-3-fluoro-4-((S)-2-hydroxypropoxy)benzamide]
0.003 µM | 0.041 µM | > 10 µM | 0.022 µM | > 10 µM | – | – | – | – | NC(=O)c1ccc(OCCO)c(F)c1-c1c(Cl)c(F)cc2c1C[C@@](CN[C@H]1C[C@@H](CO)C1)(c1ccccc1)O2 (atropisomer, axis not shown) [Example 64b, 2-((2S,4S)-5-chloro-6-fluoro-2-((((cis)-3-(hydroxymethyl)cyclobutyl)amino)methyl)-2-phenyl-2,3-dihydrobenzofuran-4-yl)-3-fluoro-4-(2-hydroxyethoxy)benzamide]

Further lines, the compound ahead of its results:

Structure (SMILES) | IC50 [1] | GI50 ([2]; Homo sapiens, NCI-H2052, 72 h) | IC50 (MKN-45/Ubc-luc cells [3]; [6]) | IC50 ([4]; Homo sapiens, NCI-H2052, 24 h) | GI50 (MKN-45/Ubc-luc cells [5]; Homo sapiens) | GI50 [2] | IC50 (MKN-45/Ubc-luc cells [3]; read-out: Reporter gene assay MKN-45 IC50, MKN-45/Ubc-luc cells (YAP deleted, specificity control), 24 hours incubation) | IC50 [4] | GI50 (MKN-45/Ubc-luc cells [5])
COc1ccc(C(N)=O)c(-c2c(Cl)ccc3c2[C@H](O)[C@@](CN)(c2ccccn2)O3)c1F (atropisomer, axis not shown) [Example 89, 2-((2R,3S,4S)-2-(Aminomethyl)-5-chloro-3-hydroxy-2-(pyridin-2-yl)-2,3-dihydrobenzofuran-4-yl)-3-fluoro-4-methoxybenzamide] | 0.019 µM | 1.6 µM | > 10 µM | 0.596 µM | > 10 µM | – | – | – | –
COc1ccc(C(N)=O)c(-c2c(Cl)c(F)cc3c2[C@H](C)[C@@](CN)(c2ccccn2)O3)c1F (atropisomer, axis not shown) [Example 109, 2-((2R,3S,4S)-2-(aminomethyl)-5-chloro-6-fluoro-3-methyl-2-(pyridin-2-yl)-2,3-dihydrobenzofuran-4-yl)-3-fluoro-4-methoxybenzamide] | 0.003 µM | 0.086 µM | > 10 µM | 0.075 µM | > 10 µM | – | – | – | –
COc1ccc(C(N)=O)c(-c2c(Cl)c(F)cc3c2[C@H](O)[C@](c2ccccc2)(C2CCCN2)O3)c1F (stereo partly drawn) [Example 164, 2-((2S,3S,4S)-5-chloro-6-fluoro-3-hydroxy-2-phenyl-2-(pyrrolidin-2-yl)-2,3-dihydrobenzofuran-4-yl)-3-fluoro-4-methoxybenzamide] | 0.004 µM | 0.107 µM | > 10 µM | 0.107 µM | > 10 µM | – | – | – | –
C[C@@H](O)CNC[C@@]1(c2ccccc2)Cc2c(cc(F)c(Cl)c2-c2c(C(N)=O)ccc(OC(F)F)c2F)O1 (atropisomer, axis not shown) [Example 74, 2-((2S,4S)-5-chloro-6-fluoro-2-((((R)-2-hydroxypropyl)amino)methyl)-2-phenyl-2,3-dihydrobenzofuran-4-yl)-4-(difluoromethoxy)-3-fluorobenzamide] | 0.033 µM | 0.674 µM | > 10 µM | 0.419 µM | > 10 µM | – | – | – | –
C[C@@H](F)COc1ccc(C(N)=O)c(-c2c(Cl)ccc3c2C[C@@](CN)(c2ccccc2)O3)c1F (atropisomer, axis not shown) [Example 15, 2-((2S,4S)-2-(aminomethyl)-5-chloro-2-phenyl-2,3-dihydrobenzofuran-4-yl)-3-fluoro-4-((R)-2-fluoropropoxy)benzamide] | 0.01 µM | 0.276 µM | > 10 µM | 0.27 µM | > 10 µM | – | – | – | –
NC[C@@]1(c2ccccc2)Cc2c(cc(F)c(Cl)c2-c2c(C(N)=O)ccc(OCCO)c2F)O1 (atropisomer, axis not shown) [Example 38, 2-((2S,4S)-2-(aminomethyl)-5-chloro-6-fluoro-2-phenyl-2,3-dihydrobenzofuran-4-yl)-3-fluoro-4-(2-hydroxyethoxy)benzamide] | 0.002 µM | 0.029 µM | > 10 µM | 0.024 µM | > 10 µM | – | – | – | –
C[C@H](O)COc1ccc(C(N)=O)c(-c2c(Cl)c(F)cc3c2C[C@](c2ccccc2)(C2CC(C)(O)CN2)O3)c1F (stereo partly drawn) [Example 159, 2-((2S,4S)-5-Chloro-6-fluoro-2-(4-hydroxy-4-methylpyrrolidin-2-yl)-2-phenyl-2,3-dihydrobenzofuran-4-yl)-3-fluoro-4-((S)-2-hydroxypropoxy)benzamide] | 0.122 µM | 0.856 µM | > 15 µM | 1.06 µM | > 15 µM | – | – | – | –
C[C@H]1c2c(ccc(Cl)c2-c2c(C(N)=O)ccc(OC(F)F)c2F)O[C@]1(CN)c1ccccc1 (atropisomer, axis not shown) [Example 103, 2-((2S,3S,4S)-2-(aminomethyl)-5-chloro-3-methyl-2-phenyl-2,3-dihydrobenzofuran-4-yl)-4-(difluoromethoxy)-3-fluorobenzamide] | 0.005 µM | 0.172 µM | > 10 µM | 0.108 µM | > 10 µM | – | – | – | –
COc1cccc([C@@]2(CN)Oc3ccc(Cl)c(-c4c(C(N)=O)ccc(OC(F)F)c4F)c3[C@@H]2O)n1 (atropisomer, axis not shown) [Example 90, 2-((2R,3S,4S)-2-(Aminomethyl)-5-chloro-3-hydroxy-2-(6-methoxypyridin-2-yl)-2,3-dihydrobenzofuran-4-yl)-4-(difluoromethoxy)-3-fluorobenzamide] | 0.022 µM | 1.7 µM | > 10 µM | 1.43 µM | > 10 µM | – | – | – | –
COc1ccc(C(N)=O)c(-c2c(Cl)ccc3c2C[C@](c2ccccc2)(C(C)N)O3)c1F (stereo partly drawn) [Example 168, 2-((2S,4S)-2-(1-Aminoethyl)-5-chloro-2-phenyl-2,3-dihydrobenzofuran-4-yl)-3-fluoro-4-methoxybenzamide] | 0.012 µM | 0.267 µM | > 10 µM | 0.253 µM | > 10 µM | – | – | – | –
